Earlier results, collected in patent publication US20110086399A1, “RECOVERY OF STILBENOIDS” (FLUXOME SCIENCES A/S, priority 2008, published 2011).

Details: stated for comparison with the concentrations in the cell broth

In the case of `Oc1cc(O)cc(/C=C/c2ccccc2)c1` [pinosylvin], the aqueous solubility is given as under 30 µg/mL.
